Measured values reported in ChEMBL document CHEMBL3045682, “Synthesis of some new indolo[2,3-c]isoquinolinyl pyrazoles, -1,3,4-oxadiazoles and their biological activities” (2013).

Legend:
Format in all cases: functional
Bacillus subtilis = assay: Antibacterial activity against Bacillus subtilis assessed as growth inhibition at 1 mg/ml by cup-plate method; details: read-out: IZ
Pseudomonas putida = assay: Antibacterial activity against Pseudomonas putida assessed as growth inhibition at 1 mg/ml by cup-plate method; details: read-out: IZ
Escherichia coli = assay: Antibacterial activity against Escherichia coli assessed as growth inhibition at 1 mg/ml by cup-plate method; details: read-out: IZ
Aspergillus fumigatus = assay: Antifungal activity against Aspergillus fumigatus assessed as growth inhibition at 1 mg/ml by cup-plate method; details: read-out: IZ
Aspergillus niger = assay: Antifungal activity against Aspergillus niger assessed as growth inhibition at 1 mg/ml by cup-plate method; details: read-out: IZ
[1] = system: Radical scavenging activity; assay: Antioxidant activity assessed as DPPH free radical scavenging activity at 75 ug/ml by spectrophotometric analysis relative to control
Aspergillus flavus = assay: Antifungal activity against Aspergillus flavus assessed as growth inhibition at 1 mg/ml by cup-plate method; details: read-out: IZ
[2] = system: Radical scavenging activity; assay: Antioxidant activity assessed as DPPH free radical scavenging activity at 25 ug/ml by spectrophotometric analysis relative to control
[3] = system: Radical scavenging activity; assay: Antioxidant activity assessed as DPPH free radical scavenging activity at 50 ug/ml by spectrophotometric analysis relative to control
[4] = system: Radical scavenging activity; assay: Antioxidant activity assessed as DPPH free radical scavenging activity at 100 ug/ml by spectrophotometric analysis relative to control

Row | Structure (SMILES) | zone of inhibition at 1000 µg/mL (Bacillus subtilis) | zone of inhibition at 1000 µg/mL (Pseudomonas putida) | zone of inhibition at 1000 µg/mL (Escherichia coli) | zone of inhibition at 1000 µg/mL (Aspergillus fumigatus) | zone of inhibition at 1000 µg/mL (Aspergillus niger) | Activity [1] | zone of inhibition at 1000 µg/mL (Aspergillus flavus) | Activity [2] | Activity [3] | Activity [4]
1 | COc1ccc2[nH]c3c(c2c1)c1ccccc1c(=O)n3C(=O)n1nc(C)cc1C | 8 mm | 10 mm | 11 mm | 4 mm | 10 mm | 53.8% | 8 mm | – | – | –
2 | CN[C@@H]1[C@H](O[C@H]2[C@H](O[C@H]3[C@H](O)[C@@H](O)[C@H](N=C(N)N)[C@@H](O)[C@@H]3N=C(N)N)O[C@@H](C)[C@]2(O)C=O)O[C@@H](CO)[C@H](O)[C@H]1O [STREPTOMYCIN] | 20 mm | 22 mm | 19 mm | – | – | – | – | – | – | –
3 | COc1ccc2[nH]c3c(c2c1)c1ccccc1c(=O)n3C(=O)n1nc(-c2ccccc2)cc1-c1ccccc1 | 11 mm | 17 mm | 11 mm | 15 mm | 9 mm | – | 17 mm | 60% | – | –
4 | COc1ccc2[nH]c3c(c2c1)c1ccccc1c(=O)n3-c1n[nH]c(=S)o1 | 10 mm | 7 mm | 13 mm | 15 mm | 10 mm | – | 10 mm | 60.8% | 67.8% | –
5 | Cc1ccc2[nH]c3c(c2c1)c1ccccc1c(=O)n3C(=O)n1nc(C)cc1C | 11 mm | 10 mm | 13 mm | 11 mm | 8 mm | – | 16 mm | – | – | 64.7%
6 | OC(Cn1cncn1)(Cn1cncn1)c1ccc(F)cc1F [FLUCONAZOLE] | – | – | – | 18 mm | 18 mm | – | 19 mm | – | – | –
7 | CC1=NN(C(=O)n2c(=O)c3ccccc3c3c4cc(Cl)ccc4[nH]c32)C(=O)C1 | 10 mm | 15 mm | 7 mm | 13 mm | 6 mm | – | 9 mm | 67.5% | – | –
8 | COc1ccc2[nH]c3c(c2c1)c1ccccc1c(=O)n3C(=O)N1N=C(C)CC1=O | 10 mm | 10 mm | 17 mm | 4 mm | 9 mm | – | 7 mm | – | – | –
9 | Cc1cc(C)n(C(=O)n2c(=O)c3ccccc3c3c4cc(Cl)ccc4[nH]c32)n1 | 11 mm | 19 mm | 9 mm | 15 mm | 16 mm | – | 11 mm | – | – | –
10 | O=c1c2ccccc2c2c3cc(Cl)ccc3[nH]c2n1-c1n[nH]c(=S)o1 | 19 mm | 20 mm | 18 mm | 17 mm | 17 mm | 58% | 16 mm | 68.3% | 69.8% | 68.9%
11 | O=C(n1nc(-c2ccccc2)cc1-c1ccccc1)n1c(=O)c2ccccc2c2c3cc(Cl)ccc3[nH]c21 | 13 mm | 18 mm | 10 mm | 15 mm | 4 mm | – | 9 mm | – | – | –
12 | CC1=NN(C(=O)n2c(=O)c3ccccc3c3c4cc(C)ccc4[nH]c32)C(=O)C1 | 8 mm | 18 mm | 10 mm | 15 mm | 12 mm | 56.5% | 14 mm | 58% | 64.2% | –
13 | Cc1ccc2[nH]c3c(c2c1)c1ccccc1c(=O)n3C(=O)n1nc(-c2ccccc2)cc1-c1ccccc1 | 9 mm | 13 mm | 5 mm | 4 mm | 15 mm | – | 13 mm | 56.2% | 56.9% | –
14 | Cc1ccc2[nH]c3c(c2c1)c1ccccc1c(=O)n3-c1n[nH]c(=S)o1 | 11 mm | 19 mm | 11 mm | 10 mm | 8 mm | – | 13 mm | 57.7% | 65.4% | –
